Test results: patent US20220331448A1, “COMPOSITIONS AND METHODS FOR TREATING SUCCINIC SEMIALDEHYDE DEHYDROGENASE DEFICIENCY (SSADHD)” (Washington State University, priority 2018, published 2022)
Where two headings read alike, the source gives them in different places.

What was measured:
[1] = system: aldh5a1−/− mice; details: cited from earlier work
[2] = system: aldh5a1−/− mouse brain; details: in vivo; cited from earlier work
[3] = system: aldh5a1−/− mouse brain; assay: Brain gene expression (GABA(A) receptor subunits, AMPK/mTOR pathway) under Torin drugs; format: in vivo; details: for lower expression of Tsc1 and 2: aldh5a1−/− mouse brain
[4] = system: aldh5a1+/+ and aldh5a1−/− mice; assay: Electrocorticography: seizures under Torin 2; format: in vivo; details: 10 mg/kg, mean ± SEM
Protocol: FIG. 7—Representative electrocorticographic recordings of seizure types in an aldh5a1−/− mouse.
Studies with Torin 2 administration in aldh5a1−/− mice, beginning at DOL10 under an escalating dose paradigm, were evaluated for seizures using a three channel recording electrocorticography (Pinnacle Technology; https://www.pinnaclet.com/eeg-emg-systerns.html) and electrode-implanted aldh5a1+/+ and aldh5a1−/− mice. EEG was scored offline using semi-automated detection (Neuroscore, Data Sciences International, St. Paul, Minn.) for seizure frequency (total number of seizures), and total ictal time (cumulative time spent in seizures); where a seizure event was defined as a run of continuous spikes ≥3s in duration on the EEG. Automatically detected events were verified by visual inspection (Dhamne et al. Mol Autism 8:26 (2017)). Our prediction was that Torin 2 administration would lead to improvement in both parameters. […] If these receptors remain immature, consistent with our hypothesis for bumetanide (see above), then their subsequent up-regulation could conceivably exacerbate depolarization, and thus enhance cumulative epileptic outburst duration, as Applicants observed (Table 2). […]

[5] = system: aldh5a1−/− mice; assay: Video-recorded seizure activity after acute i.p. bumetanide; format: in vivo
Excerpt: (§1) FIGS. 5A-5C—Intracellular chloride homeostasis, GABAergic neurotransmission and bumetanide in SSADHD (for abbreviations, see FIG. 1). (FIG. 5A) Schematic diagram of membrane ion transport and mechanism of action of bumetanide. (FIG. 5B) NKCC1 and KCC2 gene expression in the hypothalamus of aldh5a1+/+(n=5) and aldh5a1−/− (n=5) mice collected at postnatal day-of-life 20. Expression data were obtained using q-RT-PCR, validated pathway plates from Bio-Rad. (FIG. 5C) Time to sedation following acute dosing of 100 mg/kg bumetanide. Animals were evaluated at day of life (DOL) 20 and 24 for seizure events, and the time to immobilization (sedation) determined by visual recording using Noldus technology (see text). Bumetanide was administered intraperitoneally to the subject mice after 20 min. of initial observational recording, followed by an additional 20 minutes of recording. Total number of seizures was quantified in 5 min blocks of the total 40 min. recording period. Bumetanide was obtained from Enzo Life Sciences, Inc. (Farmingdale, N.Y., USA) and aseptically dissolved in DMSO vehicle. […] Abbreviations employed: n, number of animals studied; DOL, day of life; sec, seconds; min, minutes.
The potential therapeutic role of NKCC1 inhibition in SSADHD was next examined. […] Applicants' design was to quantify generalized tonic-clonic seizures in 5 minute epochs for 40 minutes in continuum. […]

[6] = system: aldh5a1+/+ and aldh5a1−/− mice; assay: Time to immobilization (sedation) after acute i.p. bumetanide; format: in vivo
Excerpt: as §1
The potential therapeutic role of NKCC1 inhibition in SSADHD was next examined. In this context, Applicants postulated that there would be resistance to the sedative activity of NKCC1 inhibitors in SSADHD, because of the increased expression of NKCC1. Applicants treated aldh5a1+/+ and aldh5a1−/− mice with acute i.p. doses of bumetanide (25 and 100 mg/kg body weight) with video recording of seizure activity as well as assessment of the time to immobilization. […] Applicants employed Pinnacle technology (https://www.pinnaclet.com) technology for recording of animal behavior in conjunction with a rubric developed by Noldus technology to evaluate seizure activity (http://www.noldus.com/animal-behavior-research). Applicants' design was to quantify generalized tonic-clonic seizures in 5 minute epochs for 40 minutes in continuum. At the 20 minute mark, a single intraperitoneal administration of bumetanide (25 or 100 mg/kg) was given and the animals returned to the open field setting.

[7] = system: gamma-butyrolactone (GBL)-treated animals; assay: Block of sedative and motor effects of GBL in mice; format: in vivo; details: diclofenac 25 mg/kg with NCS-382 300 mg/kg
[8] = target: GHB receptor (GHBR); details: relative to GHB; cited from earlier work
[9] = Metabolism in human liver microsomes
[10] = system: Madin-Darby Canine Kidney (MDCK) cells; assay: Transport in MDCK cells; format: in vitro ADME
Excerpt: (§2) Applicants subsequently turned attention to the transport of NCS-382 in vitro. […] Applicants examined cortical regions from the NCS-treated mice and evaluated the expression of a number of solute carriers involved in neurotransmitter transport. […] This finding is of interest in view of the significant depletion of glutathione in this animal model, the observation that glutathione is composed of glutamate, cysteine and glycine, and the earlier finding that glutamate/glutamine levels are abnormal in aldh5a1−/− brain (Gupta, J Pharmacol Exp Ther 302:180-187 (2004); Chowdhury, (2007)).

[11] = Pharmacokinetics after i.p. NCS-382 in C57/B6 mice; details: i.p. 100 to 500 mg/kg
[12] = Metabolism in mouse liver microsomes
[13] = system: gamma-butyrolactone (GBL)-treated animals; details: mouse, in vivo; cited from earlier work
[14] = system: HepG2 cells; assay: Gene expression in HepG2 cells; details: 0.5 mM, altered >4-fold
[15] = system: aldh5a1−/− NSCs; assay: Pharmacotoxicity in neural stem cells from aldh5a1−/− mice; details: high-dose
[16] = system: HepG2 cells; assay: Cellular toxicity in HepG2 cells; details: up to 1 mM
[17] = system: solute carriers (Slc) in aldh5a1−/− cortex; assay: Cortical expression of solute carriers after NCS-382 in aldh5a1−/− mice; format: in vivo; details: 300 mg/kg, 7 days
Excerpt: Functional role of carriers: *17a6, *17a7, *17a8, vesicular glutamate (glu) transporter, glu cotransporter, and glu transporter 3, respectively; 1a1, *1a2, 1a3, 1a4, excitatory amino acid transporters 3, 2, 1 and 4, respectively; *32a1, GABA vesicular transporter; 38a1, Na+-coupled amino acid transporter 1 (glutamine transport); *6a1, plasma membrane GABA transporter; *6a11, 6a12, 6a13, Na+-dependent GABA presynaptic terminal reuptake, Na+/Cl−-dependent betaine, and Na+/Cl−-dependent GABA 2 transporters, respectively; 7a11, glutamate-cysteine antiporter.
as §2

[18] = system: GABAA receptor subunits in aldh5a1−/− mice; assay: Expression of GABA receptor genes after ERT; details: ERT DOL 30 vs untreated DOL 21
[19] = system: aldh5a1−/− mice; assay: Enzyme replacement therapy: survival of aldh5a1−/− mice to DOL 30; format: in vivo; details: i.p. 1 mg/kg q.d. from DOL 10; 4 of 5 mice
Excerpt: As a therapeutic approach, enzyme replacement therapy (ERT) has gained prominence in the lysosomal storage disorders, although it should be feasible in organic acidernias (Darvish-Damavandi et al. Mol Genet Metab Rep 8:51-60 (2016)). Applicants examined the feasibility of ERT in aldh5a1−/− mice using a GST (glutathione)-tagged human ALDH5A1 gene construct that overexpresses the GST-hSSADH fusion protein with accompanying ampicillin resistance in E. coli (DNASU Plasmid Repository; Ramachandran et al. (2004)). Crude extracts of E. coli were harvested that had been transfected and grown in standard LB broth supplemented with ampicillin at 37° C. overnight, pelleted and lysed with Pefabloc (protease inhibitor; Sigma-Aldrich, St. Louis, Mo. USA) and lysozyme. GST-hSSADH resident in crude lysates of E. coli was purified using Pierce™ GST spin purification kits, followed by dialysis and subsequent concentration using polyethersulfone (PES) columns. Resultant protein content was quantified using a standard BCA protein assay. The GST-tagged enzyme activity was cleaved with thrombin and the activity of ALDH5A1 determined employing spectrofluorometry based on the NAD/NADH couple (Gibson et al. Clin Chim Acta 196:219-221 (1991)).

[20] = system: aldh5a1−/− mice; assay: GHB and GABA by LC/MS-MS after ERT; format: in vivo; details: enzyme treated animals
[21] = with NADPH, parent disappearance

Molecule: Nc1ccc(-c2ccc3ncc4ccc(=O)n(-c5cccc(C(F)(F)F)c5)c4c3c2)cn1 [Torin 2]
- rescue from premature lethality / lifespan extension [1]: rescue
- rescue from premature lethality / lifespan extension ([1]; listed as Torin2): striking
- rescue from premature lethality / lifespan extension ([1]; listed as torin 2): significantly prolong the lifespan
- expression of GABA(A)ergic receptor subunits [2]: corrected (upregulated)
- expression of Stk11 (AMPK's activator) ([3]; aldh5a1−/− mice): normalized
- lower expression of Tsc1 and 2 [3]: normalized
- Seizure Frequency [4]: 0.50 ± 0.59 avg/hr
- Total Ictal Time [4]: 2.1 ± 1.2 seconds (avg/hr)

Molecule: CCCCNc1cc(C(=O)O)cc(S(N)(=O)=O)c1Oc1ccccc1 [bumetanide]
- seizure activity without sedation ([5]; 25 mg/kg, data not shown): reduced seizure activity
- seizure activity between injection and onset of immobilization ([5]; 100 mg/kg): no seizure activity
- immobilization during the 40 minute recording ([6]; 25 mg/kg i.p., aldh5a1+/+ or aldh5a1−/−): did not induce immobilization
- immobilization ([6]; 100 mg/kg i.p.): rapid induction of immobilization
- time to sedation in wild-type mice ([6]; 100 mg/kg, aldh5a1+/+): almost instantaneous immobilization
- period from injection to onset of immobilization ([6]; 100 mg/kg, aldh5a1−/−): 3 to 8 min

Molecule: O=C(O)Cc1ccccc1Nc1c(Cl)cccc1Cl [diclofenac]
- effect of co-administration on efficacy of NCS-382 to block sedative and motor effects of GBL [7]: improved the efficacy

Molecule: NCCS(=O)(=O)O [taurine]
- rescue from premature lethality / lifespan extension [1]: rescue

Molecule: O=C(O)/C=C1\CCCc2ccccc2C1O (stereo not shown) [NCS-382]
- rescue from premature lethality / lifespan extension [1]: effective
- Ki, times lower than that of GHB [8]: 14 times
- calculated hepatic clearance ([9]; human): 1.2 L/h/kg body weight
- concentration up to which glucuronide formation was linear ([9]; human): up to 100 μM
- Km ([9]; read-out: Michaelis constant (Km) for dehydrogenation, human): 12.7 ± 4.9 µM
- intrinsic clearance (Clint) [9, 21]: 0.513 mL/min/mg protein
- inhibition of GHB transport [10]: capable of inhibiting GHB transport
- transport of the compound ([10]; MDCK): actively transported
- brain t½ ([11]; decreasing with increasing dose): 45.6 to 58.2 min
- plasma elimination t½ ([11]; dose-dependent): 15 to 40.8 min
- concentration up to which glucuronide formation was linear ([12]; mouse): up to 100 μM
- calculated hepatic clearance ([12]; murine): 5.2 L/h/kg body weight
- Km ([12]; read-out: Michaelis constant (Km) for dehydrogenation, mouse): 29.5 ± 10 µM
- intrinsic clearance (Clint) [12, 21]: 0.587 mL/min/mg protein
- blocking the motor deficits induced by GBL [13]: effective
- CD36 expression change [14]: ↓
- HTRA4 expression change [14]: ↑
- SERPINA3 expression change [14]: ↓
- SLC2A3 expression change [14]: ↓
- SLC51A expression change [14]: ↓
- TNFRSF1A expression change [14]: ↑
- pharmacotoxicity in neural stem cells [15]: only minimal pharmacotoxicity
- cytotoxicity (cellular integrity, survival, organelle function) [16]: little evidence
- expression of the glutamate-cystine antiporter [17]: induced significant down-regulation
- solute carriers with aberrant expression normalized [17]: normalized the aberrant expression of seven
- solute carriers without effect [17]: had no effect on six

Molecule: CCC(=O)N1CCN(c2ccc(-n3c(=O)ccc4cnc5ccc(-c6cnc7ccccc7c6)cc5c43)cc2C(F)(F)F)CC1 [Torin 1]
- rescue from premature lethality / lifespan extension [1]: significantly prolong the lifespan
- decreased expression of Prkag1 and 2 ([3]; aldh5a1−/− brain): normalized
- lower expression of Tsc1 and 2 [3]: normalized

B1: ALDH5A1: bacterially-produced purified human ALDH5A1 (SSADH) enzyme, from GST-hSSADH fusion protein cleaved with thrombin (protein, UniProt P51649 48-535, looked up)
Succinate-semialdehyde …: AGRLAGLSAALLRTDSFVGGRWLPAAATFPVQDPASGAALGMVADCGVREARAAVRAAYEAFCRWREVSAKERSSLLRKWYNLMIQNKDDLARIITAESGKPLKEAHGEILYSAFFLEWFSEEARRVYGDIIHTPAKDRRALVLKQPIGVAAVITPWNFPSAMITRKVGAALAAGCTVVVKPAEDTPFSALALAELASQAGIPSGVYNVIPCSRKNAKEVGEAICTDPLVSKISFTGSTTTGKILLHHAANSVKRVSMELGGLAPFIVFDSANVDQAVAGAMASKFRNTGQTCVCSNQFLVQRGIHDAFVKAFAEAMKKNLRVGNGFEEGTTQGPLINEKAVEKVEKQVNDAVSKGATVVTGGKRHQLGKNFFEPTLLCNVTQDMLCTHEETFGPLAPVIKFDTEEEAIAIANAADVGLAGYFYSQDPAQIWRVAEQLEVGMVGVNEGLISSVECPFGGVKQSGLGREGSKYGIDEYLELKYVCYGGL
modifications: thrombin-cleaved from GST fusion
notes: bacterially-produced purified human ALDH5A1 (SSADH) enzyme, from GST-hSSADH fusion protein cleaved with thrombin
- expression of GABAA receptor subunits (primarily gamma, epsilon and theta) [18]: significantly corrected
- survival rate to 30 days [19]: 80%
- GABA in blood [20]: trend toward improved levels
- GHB in the brain [20]: significant correction
